Measurements reported in ChEMBL document CHEMBL4507257, “Data for DCP probe ABT-100” (2021).

Columns and labels:
[1] = system: Tyrosine-protein kinase ABL1 (Homo sapiens), P00519 [F317L]; conditions: Compound concentration 1000.0 nM
[2] = system: Tyrosine-protein kinase ABL1 (Homo sapiens), P00519 [H396P]; conditions: Compound concentration 1000.0 nM
[3] = system: Tyrosine-protein kinase ABL1 (Homo sapiens), P00519 [M351T]; conditions: Compound concentration 1000.0 nM
[4] = target: Activin receptor type-1 (Homo sapiens) (UniProt Q04771); conditions: Compound concentration 1000.0 nM
[5] = system: ALK tyrosine kinase receptor (Homo sapiens), Q9UM73 [L1196M]; conditions: Compound concentration 1000.0 nM
Aurora kinase B = Aurora kinase B (Homo sapiens, UniProt Q96GD4); conditions: Compound concentration 1000.0 nM
[6] = target: Tyrosine-protein kinase receptor UFO (Homo sapiens) (UniProt P30530); conditions: Compound concentration 1000.0 nM
[7] = target: BMP-2-inducible protein kinase (Homo sapiens) (UniProt Q9NSY1); conditions: Compound concentration 1000.0 nM
[8] = target: Mitotic checkpoint serine/threonine-protein kinase BUB1 (Homo sapiens) (UniProt O43683); conditions: Compound concentration 1000.0 nM
[9] = target: Cyclin-dependent kinase 11A (Homo sapiens) (UniProt Q9UQ88); conditions: Compound concentration 1000.0 nM
[10] = target: Cyclin-dependent kinase 2 (Homo sapiens) (UniProt P24941); conditions: Compound concentration 1000.0 nM
[11] = target: Cyclin-dependent kinase 4 (Homo sapiens) (UniProt P11802); conditions: Compound concentration 1000.0 nM
[12] = target: Dual specificity protein kinase CLK1 (Homo sapiens) (UniProt P49759); conditions: Compound concentration 1000.0 nM
[13] = target: Dual specificity protein kinase CLK4 (Homo sapiens) (UniProt Q9HAZ1); conditions: Compound concentration 1000.0 nM
Chain of Dual specificity protein kinase CLK4 (Homo sapiens) (Q9HAZ1 whole entry, looked up, canonical isoform): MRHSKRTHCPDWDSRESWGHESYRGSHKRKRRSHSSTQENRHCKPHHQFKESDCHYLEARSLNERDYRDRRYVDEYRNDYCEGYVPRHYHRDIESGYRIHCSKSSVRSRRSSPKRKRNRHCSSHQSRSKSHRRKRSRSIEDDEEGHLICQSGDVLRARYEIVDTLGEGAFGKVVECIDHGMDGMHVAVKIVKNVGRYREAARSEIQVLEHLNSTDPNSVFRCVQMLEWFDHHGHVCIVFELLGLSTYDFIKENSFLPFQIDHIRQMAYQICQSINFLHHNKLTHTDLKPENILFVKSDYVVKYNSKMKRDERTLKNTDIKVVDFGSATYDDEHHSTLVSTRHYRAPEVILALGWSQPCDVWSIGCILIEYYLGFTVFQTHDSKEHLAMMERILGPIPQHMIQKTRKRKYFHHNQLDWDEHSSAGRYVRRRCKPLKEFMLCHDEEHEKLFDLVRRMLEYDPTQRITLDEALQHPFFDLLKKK

[14] = target: Casein kinase I isoform alpha-like (Homo sapiens) (UniProt Q8N752); conditions: Compound concentration 1000.0 nM
[15] = target: Casein kinase II subunit alpha' (Homo sapiens) (UniProt P19784); conditions: Compound concentration 1000.0 nM
[16] = system: Epidermal growth factor receptor (Homo sapiens), P00533 [UNDEFINED MUTATION]; conditions: Compound concentration 1000.0 nM
[17] = target: Ephrin type-A receptor 5 (Homo sapiens) (UniProt P54756); conditions: Compound concentration 1000.0 nM
[18] = target: Tyrosine-protein kinase Fes/Fps (Homo sapiens) (UniProt P07332); conditions: Compound concentration 1000.0 nM
[19] = target: Receptor-type tyrosine-protein kinase FLT3 (Homo sapiens) (UniProt P36888); conditions: Compound concentration 1000.0 nM
[20] = system: Receptor-type tyrosine-protein kinase FLT3 (Homo sapiens), P36888 [UNDEFINED MUTATION]; conditions: Compound concentration 1000.0 nM
[21] = target: Inhibitor of nuclear factor kappa-B kinase subunit epsilon (Homo sapiens) (UniProt Q14164); conditions: Compound concentration 1000.0 nM
[22] = target: Tyrosine-protein kinase JAK1 (Homo sapiens) (UniProt P23458); conditions: Compound concentration 1000.0 nM
Chain of Tyrosine-protein kinase JAK1 (Homo sapiens) (P23458 whole entry): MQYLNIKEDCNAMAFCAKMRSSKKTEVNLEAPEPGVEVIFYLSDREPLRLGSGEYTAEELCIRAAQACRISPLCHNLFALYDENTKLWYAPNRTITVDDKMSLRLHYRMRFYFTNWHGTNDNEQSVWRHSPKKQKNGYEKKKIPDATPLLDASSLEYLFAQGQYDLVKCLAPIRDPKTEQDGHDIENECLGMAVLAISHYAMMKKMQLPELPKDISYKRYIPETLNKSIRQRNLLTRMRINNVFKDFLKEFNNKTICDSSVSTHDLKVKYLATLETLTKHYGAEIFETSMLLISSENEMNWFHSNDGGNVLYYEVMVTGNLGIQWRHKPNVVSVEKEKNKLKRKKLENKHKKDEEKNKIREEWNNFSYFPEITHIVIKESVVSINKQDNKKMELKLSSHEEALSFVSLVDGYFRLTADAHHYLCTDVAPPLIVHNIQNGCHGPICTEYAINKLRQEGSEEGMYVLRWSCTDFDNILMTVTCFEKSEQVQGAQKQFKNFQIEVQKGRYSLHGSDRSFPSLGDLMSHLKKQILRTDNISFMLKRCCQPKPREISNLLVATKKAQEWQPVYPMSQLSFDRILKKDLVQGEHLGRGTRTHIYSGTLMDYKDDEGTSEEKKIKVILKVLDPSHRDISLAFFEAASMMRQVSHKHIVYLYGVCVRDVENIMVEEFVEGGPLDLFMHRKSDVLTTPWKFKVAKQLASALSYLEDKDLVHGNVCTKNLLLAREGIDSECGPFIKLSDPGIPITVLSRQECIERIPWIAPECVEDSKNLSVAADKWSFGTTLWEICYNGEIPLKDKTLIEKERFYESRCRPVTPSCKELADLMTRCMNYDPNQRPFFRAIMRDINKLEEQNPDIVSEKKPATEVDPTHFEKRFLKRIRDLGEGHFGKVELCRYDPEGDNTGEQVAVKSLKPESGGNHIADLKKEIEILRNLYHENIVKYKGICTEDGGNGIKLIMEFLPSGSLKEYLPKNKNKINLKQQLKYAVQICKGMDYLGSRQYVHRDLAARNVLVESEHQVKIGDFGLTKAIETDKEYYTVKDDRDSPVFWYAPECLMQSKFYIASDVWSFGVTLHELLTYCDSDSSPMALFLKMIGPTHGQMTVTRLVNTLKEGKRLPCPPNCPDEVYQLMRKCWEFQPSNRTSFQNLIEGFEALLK

[23] = target: Tyrosine-protein kinase JAK1 (Homo sapiens) (UniProt P23458); conditions: Compound concentration 1000.0 nM; remark: listed apart in the source
[24] = system: Mast/stem cell growth factor receptor Kit (Homo sapiens), P10721 [V559D,V654A]; conditions: Compound concentration 1000.0 nM
[25] = target: Serine/threonine-protein kinase MAK (Homo sapiens) (UniProt P20794); conditions: Compound concentration 1000.0 nM
[26] = target: Mitogen-activated protein kinase kinase kinase 14 (Homo sapiens) (UniProt Q99558); conditions: Compound concentration 1000.0 nM
Chain of Mitogen-activated protein kinase kinase kinase 14 (Homo sapiens) (Q99558 whole entry, looked up): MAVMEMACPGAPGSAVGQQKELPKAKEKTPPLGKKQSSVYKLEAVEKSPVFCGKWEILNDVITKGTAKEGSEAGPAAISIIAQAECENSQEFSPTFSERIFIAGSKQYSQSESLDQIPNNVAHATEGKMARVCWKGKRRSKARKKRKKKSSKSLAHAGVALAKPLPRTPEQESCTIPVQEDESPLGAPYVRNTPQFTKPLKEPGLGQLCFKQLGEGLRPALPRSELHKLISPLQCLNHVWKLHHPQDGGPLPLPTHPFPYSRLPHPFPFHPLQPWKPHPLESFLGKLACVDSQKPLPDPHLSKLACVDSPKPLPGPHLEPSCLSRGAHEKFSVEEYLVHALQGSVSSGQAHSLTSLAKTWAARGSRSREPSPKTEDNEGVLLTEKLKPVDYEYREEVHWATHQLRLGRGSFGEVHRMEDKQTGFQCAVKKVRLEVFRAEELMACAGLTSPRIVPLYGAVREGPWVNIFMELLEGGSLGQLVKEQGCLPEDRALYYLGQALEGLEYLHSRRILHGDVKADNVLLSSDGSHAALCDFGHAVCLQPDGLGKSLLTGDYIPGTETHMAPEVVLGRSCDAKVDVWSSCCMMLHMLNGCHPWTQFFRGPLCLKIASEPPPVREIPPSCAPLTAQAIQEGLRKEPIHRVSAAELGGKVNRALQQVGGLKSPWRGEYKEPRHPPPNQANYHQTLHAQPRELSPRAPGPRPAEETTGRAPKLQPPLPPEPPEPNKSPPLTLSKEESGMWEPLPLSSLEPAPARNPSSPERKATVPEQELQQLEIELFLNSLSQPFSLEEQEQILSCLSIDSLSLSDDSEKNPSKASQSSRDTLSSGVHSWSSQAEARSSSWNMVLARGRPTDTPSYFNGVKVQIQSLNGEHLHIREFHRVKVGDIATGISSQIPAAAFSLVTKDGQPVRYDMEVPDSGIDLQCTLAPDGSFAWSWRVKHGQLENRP

[27] = target: Phosphatidylinositol 4-phosphate 5-kinase type-1 gamma (Homo sapiens) (UniProt O60331); conditions: Compound concentration 1000.0 nM
Chain of Phosphatidylinositol 4-phosphate 5-kinase type-1 gamma (Homo sapiens) (O60331 whole entry): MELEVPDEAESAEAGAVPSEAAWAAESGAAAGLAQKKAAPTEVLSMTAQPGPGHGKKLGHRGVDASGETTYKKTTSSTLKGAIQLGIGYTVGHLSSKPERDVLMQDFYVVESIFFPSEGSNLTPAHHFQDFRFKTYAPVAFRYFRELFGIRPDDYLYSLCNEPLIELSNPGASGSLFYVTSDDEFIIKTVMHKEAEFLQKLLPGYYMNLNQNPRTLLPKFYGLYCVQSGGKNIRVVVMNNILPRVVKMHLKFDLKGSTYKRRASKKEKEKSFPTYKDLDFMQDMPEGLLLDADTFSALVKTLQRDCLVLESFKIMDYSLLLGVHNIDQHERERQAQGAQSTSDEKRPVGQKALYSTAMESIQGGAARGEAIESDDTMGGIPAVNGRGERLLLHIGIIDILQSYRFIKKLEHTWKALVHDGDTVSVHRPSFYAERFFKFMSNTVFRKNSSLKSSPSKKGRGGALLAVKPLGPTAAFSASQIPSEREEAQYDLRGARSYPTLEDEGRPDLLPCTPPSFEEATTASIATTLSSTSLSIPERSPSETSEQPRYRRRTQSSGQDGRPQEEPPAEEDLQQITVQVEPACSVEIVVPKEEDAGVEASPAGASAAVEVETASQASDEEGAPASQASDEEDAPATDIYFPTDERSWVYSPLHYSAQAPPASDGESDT

[28] = system: Proto-oncogene tyrosine-protein kinase receptor Ret (Homo sapiens), P07949 [V804M]; conditions: Compound concentration 1000.0 nM
[29] = target: Receptor-interacting serine/threonine-protein kinase 1 (Homo sapiens) (UniProt Q13546); conditions: Compound concentration 1000.0 nM
[30] = target: STE20-like serine/threonine-protein kinase (Homo sapiens) (UniProt Q9H2G2); conditions: Compound concentration 1000.0 nM
Chain of STE20-like serine/threonine-protein kinase (Homo sapiens) (Q9H2G2 whole entry, looked up): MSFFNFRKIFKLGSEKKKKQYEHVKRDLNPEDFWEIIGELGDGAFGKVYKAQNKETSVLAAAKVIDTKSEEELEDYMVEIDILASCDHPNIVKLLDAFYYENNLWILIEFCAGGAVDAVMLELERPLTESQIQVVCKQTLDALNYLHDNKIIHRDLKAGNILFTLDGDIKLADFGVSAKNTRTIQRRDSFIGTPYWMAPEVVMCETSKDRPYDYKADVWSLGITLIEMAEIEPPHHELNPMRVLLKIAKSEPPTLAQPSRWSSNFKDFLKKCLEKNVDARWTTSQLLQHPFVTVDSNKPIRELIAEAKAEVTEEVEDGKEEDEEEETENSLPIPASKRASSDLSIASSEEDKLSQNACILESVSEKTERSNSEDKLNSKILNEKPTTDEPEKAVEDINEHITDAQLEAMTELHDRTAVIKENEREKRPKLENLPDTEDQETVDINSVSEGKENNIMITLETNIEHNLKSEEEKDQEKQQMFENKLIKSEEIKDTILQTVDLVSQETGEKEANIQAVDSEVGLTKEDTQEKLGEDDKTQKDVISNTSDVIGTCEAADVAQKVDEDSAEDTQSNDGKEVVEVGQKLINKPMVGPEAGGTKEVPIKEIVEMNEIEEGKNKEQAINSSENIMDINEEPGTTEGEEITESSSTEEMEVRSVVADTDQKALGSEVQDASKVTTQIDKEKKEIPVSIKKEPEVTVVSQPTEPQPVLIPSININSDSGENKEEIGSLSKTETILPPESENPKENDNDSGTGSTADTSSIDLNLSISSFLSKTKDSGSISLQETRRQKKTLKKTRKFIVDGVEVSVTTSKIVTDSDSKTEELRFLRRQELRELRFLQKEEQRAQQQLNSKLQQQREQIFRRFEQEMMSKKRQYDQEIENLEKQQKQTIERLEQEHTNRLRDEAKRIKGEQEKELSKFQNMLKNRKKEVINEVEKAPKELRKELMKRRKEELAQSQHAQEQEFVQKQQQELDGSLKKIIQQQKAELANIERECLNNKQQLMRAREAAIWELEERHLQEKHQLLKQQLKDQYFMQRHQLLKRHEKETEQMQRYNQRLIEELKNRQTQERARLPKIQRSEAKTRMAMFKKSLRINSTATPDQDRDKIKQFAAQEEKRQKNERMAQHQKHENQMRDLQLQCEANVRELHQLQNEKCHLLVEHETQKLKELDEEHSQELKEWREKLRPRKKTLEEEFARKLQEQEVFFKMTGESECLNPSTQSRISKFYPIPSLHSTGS

[31] = target: Serine/threonine-protein kinase 33 (Homo sapiens) (UniProt Q9BYT3); conditions: Compound concentration 1000.0 nM
[32] = target: Tyrosine-protein kinase SYK (Homo sapiens) (UniProt P43405); conditions: Compound concentration 1000.0 nM
[33] = target: Tyrosine-protein kinase Tec (Homo sapiens) (UniProt P42680); conditions: Compound concentration 1000.0 nM
[34] = target: Serine/threonine-protein kinase tousled-like 1 (Homo sapiens) (UniProt Q9UKI8); conditions: Compound concentration 1000.0 nM
[35] = target: T1, D(4) dopamine receptor (Homo sapiens) (UniProt P21917); conditions: Compound concentration 10.0 uM
T1 sequence (whole entry): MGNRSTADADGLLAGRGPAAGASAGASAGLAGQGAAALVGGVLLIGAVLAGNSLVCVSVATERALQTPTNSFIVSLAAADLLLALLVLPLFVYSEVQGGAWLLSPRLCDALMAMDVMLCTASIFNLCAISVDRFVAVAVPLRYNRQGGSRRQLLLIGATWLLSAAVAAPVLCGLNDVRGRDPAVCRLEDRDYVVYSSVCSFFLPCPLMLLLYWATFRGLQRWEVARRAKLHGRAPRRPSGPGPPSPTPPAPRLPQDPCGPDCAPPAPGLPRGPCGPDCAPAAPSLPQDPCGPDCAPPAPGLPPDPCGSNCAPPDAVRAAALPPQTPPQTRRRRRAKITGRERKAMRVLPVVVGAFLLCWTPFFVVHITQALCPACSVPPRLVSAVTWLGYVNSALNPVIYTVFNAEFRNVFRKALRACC

[36] = target: Mu-type opioid receptor (Homo sapiens) (UniProt P35372); conditions: Compound concentration 10.0 uM
[37] = target: Histamine H2 receptor (Homo sapiens) (UniProt P25021); conditions: Compound concentration 10.0 uM
Chain of Histamine H2 receptor (Homo sapiens) (P25021 whole entry): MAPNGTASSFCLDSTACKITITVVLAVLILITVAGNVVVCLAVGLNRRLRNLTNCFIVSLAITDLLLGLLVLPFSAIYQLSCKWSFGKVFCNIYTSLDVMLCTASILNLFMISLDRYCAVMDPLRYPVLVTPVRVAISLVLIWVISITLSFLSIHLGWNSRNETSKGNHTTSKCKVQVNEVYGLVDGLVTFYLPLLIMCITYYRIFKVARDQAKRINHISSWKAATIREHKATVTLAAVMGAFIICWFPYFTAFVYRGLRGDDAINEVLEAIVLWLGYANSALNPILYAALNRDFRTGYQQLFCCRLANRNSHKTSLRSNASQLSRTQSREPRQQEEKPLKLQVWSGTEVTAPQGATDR

[38] = target: Alpha-2B adrenergic receptor (Homo sapiens) (UniProt P18089); conditions: Compound concentration 10.0 uM

Cn1cncc1[C@@](O)(COc1ccc(C#N)cc1-c1ccc(OC(F)(F)F)cc1)c1ccc(C#N)cc1 [A-108]
residual activity [1]: 100% | residual activity [2]: 92% | residual activity [3]: 6.2% | residual activity [4]: 100% | residual activity [5]: 100% | residual activity (Aurora kinase B): 100% | residual activity [6]: 100% | residual activity [7]: 79% | residual activity [8]: 98% | residual activity [9]: 100% | residual activity [10]: 89% | residual activity [11]: 92% | residual activity [12]: 100% | residual activity [13]: 96% | residual activity [14]: 100% | residual activity [15]: 100% | residual activity [16]: 64% | residual activity [17]: 67% | residual activity [18]: 100% | residual activity [19]: 100% | residual activity [20]: 80% | residual activity [21]: 100% | residual activity [22]: 100% | residual activity [23]: 92% | residual activity [24]: 100% | residual activity [25]: 99% | residual activity [26]: 92% | residual activity [27]: 100% | residual activity [28]: 98% | residual activity [29]: 90% | residual activity [30]: 100% | residual activity [31]: 69% | residual activity [32]: 100% | residual activity [33]: 100% | residual activity [34]: 100% | inhibition [35]: 6.23% | inhibition [36]: -3.25% | inhibition [37]: 5.38% | inhibition [38]: 20%

Cn1cncc1[C@](O)(COc1ccc(C#N)cc1-c1ccc(OC(F)(F)F)cc1)c1ccc(C#N)cc1 [ABT-100]
residual activity [1]: 100% | residual activity [2]: 100% | residual activity [3]: 100% | residual activity [4]: 78% | residual activity [5]: 100% | residual activity (Aurora kinase B): 100% | residual activity [6]: 100% | residual activity [7]: 97% | residual activity [8]: 85% | residual activity [9]: 100% | residual activity [10]: 95% | residual activity [11]: 100% | residual activity [12]: 70% | residual activity [13]: 94% | residual activity [14]: 74% | residual activity [15]: 100% | residual activity [16]: 78% | residual activity [17]: 97% | residual activity [18]: 100% | residual activity [19]: 87% | residual activity [20]: 69% | residual activity [21]: 100% | residual activity [22]: 59% | residual activity [23]: 70% | residual activity [24]: 100% | residual activity [25]: 100% | residual activity [26]: 88% | residual activity [27]: 93% | residual activity [28]: 99% | residual activity [29]: 79% | residual activity [30]: 90% | residual activity [31]: 74% | residual activity [32]: 95% | residual activity [33]: 93% | residual activity [34]: 100% | inhibition [35]: -1.32% | inhibition [36]: 16.4% | inhibition [37]: 14.4% | inhibition [38]: 8.46%
